Test results: patent US8389509B2, “Substituted pyrazole compounds” (Bristol-Myers Squibb Company, priority 2009, dated 2013)
Where a name gives a salt, the structure may show the parent alone.

Columns and labels:
S1P1 [1] = biological target: T1, S1P1 (Homo sapiens, UniProt P21453); assay: Method A: Receptor [35S] GTPγS Binding Assay, S1P1; type: biochemical; conditions: ratio of S1P3 EC50 to S1P1 EC50, Method A
T1 construct: expressed in transfected cells; host or cells: CHO cells
Description: Method A: Receptor [35S] GTPγS Binding Assays
Compounds were loaded in a 384 FALCON® v-bottom plate (0.5 μl/well in a 3-fold dilution). Membranes prepared from S1P1/CHO cells or EDG3-Gal5-bla HEK293T cells were added to the compound plate (40 μl/well, final protein 3 μg/well) with MULTIDROP®. [^35S]GTP (1250 Ci/mmol, Perkin Elmer) was diluted in assay buffer: 20 mM HEPES, pH7.5, 10 mM MgCl2, 150 mM NaCl, 1 mM EGTA, 1 mM DTT, 10 μM GDP, 0.1% fatty acid free BSA, and 10 μg/ml Saponin to 0.4 nM. 40 μl of the [^35S] GTP solution was added to the compound plate with a final concentration of 0.2 nM. The reaction was kept at room temperature for 45 min. At the end of incubation, all the mixtures in the compound plate were transferred to a 384 well FB filter plates via GPCR robot system. The filter plate was washed with water 4 times by using the modified manifold Embla plate washer and dried at 60° C. for 45 min. 30 μA of MicroScint 20 scintillation fluid was added to each well for counting at Packard TOPCOUNT®. EC50 is defined as the agonist concentration that corresponds to 50% of the Ymax (maximal response) obtained for each individual compound tested.
(§1) Compounds of the present invention and Comparative Compound A were tested in the Receptor [^35S] GTPγS Binding Assays (Method A) and Receptor [^35S] In some instances, the value is an average of multiple experiments where N is the number of experiments conducted that provided satisfactory dose response curves. When more than one batch of an example was tested, the value presented is from a batch which allowed a comparison of GTPγS S1P1 and GTPγS S1P3 in which the most number of experiments were performed. Preferably, the same batch was examined in Method A and Method B. Data was not averaged across different batches of an example compound.

S1P1 [2] = biological target: T1, S1P1; assay: Method B: Receptor [35S] GTPγS SPA Binding Assay, S1P1; type: biochemical; conditions: for GTPγS S1P3/S1P1 (Method B): ratio of S1P3 EC50 to S1P1 EC50, Method B; for EC50: Method B (SPA), S1P1 transfected CHO cell membranes
Description: (§2) Method B: Receptor [^35S] GTPγS SPA Binding Assays
(§3) Membranes prepared from S1P1 or S1P3 transfected CHO cells (2 μg protein) were incubated in 96-well white plates (CORNING® 3693) with test compounds diluted in DMSO, in 50 μl of reaction mixture containing 7.5 μA WGA-PVT beads (20 mg/ml), and 5 μM GDP, 20 mM HEPES pH 7.4, 100 mM NaCl, 1 mM EDTA, 5 mM MgCl2, 10 μg/ml saponin, 0.1% BSA, and 1 μM leupeptin. The assay was initiated with the addition of […] of 0.2 nM [^35S]-GTPγS (1250 Ci/mmol; NEN) in assay buffer. After 90 min incubation at room temperature, spin the plate at 1000 rpm for 5 min. The bound radionuclides were measured at TOPCOUNT®, expressed as % response relative to S1P (1 μM) activation. Data was analyzed using the four parameter logistic equation in Excel. The four parameters in the equation, Y=A+((B−A)/(1+((EC50/X)^D))), are described as following: A is the Y value (agonist activity) at the bottom plateau; B is the Y value at the top plateau; EC50 is the X value (agonist concentration) when the response is halfway between bottom and top; D is Hill coefficient. Curves were not generated for compounds having Ymax values were below 50%.
as §1

S1P1 [3] = biological target: T1, S1P1; assay: S1P1 Binding Assay (33P-S1P competition, CHO membranes); conditions: membranes of CHO cells expressing human S1P1, 33P-S1P ligand; read-out: S1P1 B IC50
Description: Membranes were prepared from CHO cells expressing human S1P1. Cells were dissociated in buffer containing 20 mM HEPES, pH 7.5, 50 mM NaCl, 2 mM EDTA and Protease Inhibitor cocktail (Roche), and disrupted on ice using the Polytron homogenizer. The homogenate was centrifuged at 20,000 rpm (48,000 g) and the supernatant was discarded. The membrane pellets were resuspended in buffer containing 50 mM HEPES, pH 7.5, 100 mM NaCl, 1 mM MgCl2, 2 mM EDTA and stored in aliquots at −80° C. after protein concentration determination.
Membranes (2 μg/well) and 0.03 nM final concentration of ^33P-S1P ligand (1 mCi/ml, American Radiolabeled Chemicals) were added to the compound plates. Binding was performed for 60 min at room temperature, terminated by collecting the membranes onto GF/B filter plates, and radioactivity was measured by TOPCOUNT®. The competition data of the test compounds over a range of concentrations was plotted as percentage inhibition of radioligand specific binding. The IC50 is defined as the concentration of competing ligand needed to reduce specific binding by 50%.
Compounds of the present invention and Comparative Compound A were tested in the S1P1 binding assay described hereinabove and the results rounded to two digits, shown in Table A were obtained. In some instances, the value is an average of multiple experiments where N is the number of experiments conducted that provided satisfactory dose response curves. When more than one batch of an example was tested, the value presented is from the batch which allowed a comparison of GTPγS S1P1 and GTPγS S1P3 in Method A (Data shown in Table B). Data was not averaged across different batches of an example compound.

S1P3 = S1P3 (Homo sapiens, UniProt Q99500); assay: Method B: Receptor [35S] GTPγS SPA Binding Assay, S1P3; type: biochemical; design: expressed in transfected cells; host or cells: CHO cells; conditions: S1P3 transfected CHO cell membranes
Description: as §2, §3, §1

T1 sequence (P21453 whole entry): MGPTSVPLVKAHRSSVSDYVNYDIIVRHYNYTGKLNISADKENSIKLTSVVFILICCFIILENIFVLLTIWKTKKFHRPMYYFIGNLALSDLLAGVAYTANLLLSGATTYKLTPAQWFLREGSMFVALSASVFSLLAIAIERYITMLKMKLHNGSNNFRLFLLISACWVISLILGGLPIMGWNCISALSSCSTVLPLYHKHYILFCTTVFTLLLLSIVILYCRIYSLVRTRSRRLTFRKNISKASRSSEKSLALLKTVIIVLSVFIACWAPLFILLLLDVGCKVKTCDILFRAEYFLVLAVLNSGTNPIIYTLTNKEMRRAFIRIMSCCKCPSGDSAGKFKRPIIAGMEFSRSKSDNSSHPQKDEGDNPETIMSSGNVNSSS
S1P3, sequence (Q99500 whole entry): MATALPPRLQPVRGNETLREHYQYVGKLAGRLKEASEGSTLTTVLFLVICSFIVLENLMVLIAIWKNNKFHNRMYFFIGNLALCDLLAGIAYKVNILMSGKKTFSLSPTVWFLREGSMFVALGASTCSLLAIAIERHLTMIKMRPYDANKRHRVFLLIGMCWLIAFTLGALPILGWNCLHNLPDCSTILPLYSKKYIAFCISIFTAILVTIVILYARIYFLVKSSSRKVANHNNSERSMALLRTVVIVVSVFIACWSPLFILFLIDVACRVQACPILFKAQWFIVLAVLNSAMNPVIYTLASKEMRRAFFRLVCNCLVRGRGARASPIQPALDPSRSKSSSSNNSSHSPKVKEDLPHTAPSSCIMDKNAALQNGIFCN

Row | SMILES | GTPγS S1P3/S1P1 (Method A) (S1P1 [1]) | GTPγS S1P3/S1P1 (Method B) (S1P1 [2]) | IC50 (S1P1 [3]) | EC50 (S1P3) | EC50 (S1P1 [2])
1 | CCNc1c(-c2nc(-c3ccc(CN4CC(C(=O)O)C4)cc3)no2)cnn1-c1ccccc1 [Example 4, 1-(4-(5-(5-(ethylamino)-1-phenyl-1H-pyrazol-4-yl)-1,2,4-oxadiazol-3-yl)benzyl)azetidine-3-carboxylic acid] | – | 2,100 | 1.1 nM | 400 nM | 0.19 nM
2 | O=C(O)C1CN(Cc2ccc(-c3noc(-c4cnn(-c5ccccn5)c4-c4ccccc4)n3)cc2)C1 [Example 10, 1-(4-(5-(5-phenyl-1-(pyridin-2-yl)-1H-pyrazol-4-yl)-1,2,4-oxadiazol-3-yl)benzyl)azetidine-3-carboxylic acid] | – | 2,600 | 1.1 nM | 1100 nM | 0.42 nM
3 | CC(C)CNc1c(-c2nc(-c3ccc(CN4CC(C(=O)O)C4)cc3)no2)cnn1-c1ccccc1 [Example 12, 1-(4-(5-(5-(Isobutylamino)-1-phenyl-1H-pyrazol-4-yl)-1,2,4-oxadiazol-3-yl)benzyl)azetidine-3-carboxylic acid] | – | 35,000 | 1.7 nM | 9800 nM | 0.28 nM
4 | CC(C)Nc1c(-c2nc(-c3ccc(CN4CC(C(=O)O)C4)cc3)no2)cnn1-c1ccccc1 [Example 3, 1-(4-(5-(5-(isopropylamino)-1-phenyl-1H-pyrazol-4-yl)-1,2,4-oxadiazol-3-yl)benzyl)azetidine-3-carboxylic acid] | – | 11,000 | 0.48 nM | 1700 nM | 0.15 nM
5 | CCCCNc1c(-c2nc(-c3ccc(CN4CC(C(=O)O)C4)cc3)no2)cnn1-c1ccccc1 [Example 13, 1-(4-(5-(5-(n-butylamino)-1-phenyl-1H-pyrazol-4-yl)-1,2,4-oxadiazol-3-yl)benzyl)azetidine-3-carboxylic acid] | – | 300 | 3.1 nM | 51 nM | 0.17 nM

Next, values leading:

Row | GTPγS S1P3/S1P1 (Method A) (S1P1 [1]) | GTPγS S1P3/S1P1 (Method B) (S1P1 [2]) | IC50 (S1P1 [3]) | EC50 (S1P3) | EC50 (S1P1 [2]) | SMILES
6 | 1.2 | 78 | – | – | – | O=C(O)C1CN(Cc2ccc(-c3noc(-c4cc(-c5ccccc5)c(C(F)(F)F)s4)n3)cc2)C1 [Comp. A, 1-(4-(5-(4-phenyl-5-(trifluoromethyl)thiophen-2-yl)-1,2,4-oxadiazol-3-yl)benzyl)-azetidine-3-carboxylic acid, reference compound]
7 | – | 2,500 | 0.19 nM | 220 nM | 0.087 nM | O=C(O)C1CN(Cc2ccc(-c3noc(-c4cnn(-c5ccccn5)c4C4CCCC4)n3)cc2)C1 [Example 7, 1-(4-(5-(5-cyclopentyl-1-(pyridin-2-yl)-1H-pyrazol-4-yl)-1,2,4-oxadiazol-3-yl)benzyl)azetidine-3-carboxylic acid]
8 | – | 1,100 | – | 2000 nM | 1.9 nM | O=C(O)C1CN(Cc2ccc(-c3noc(-c4cnn(-c5ccccc5)c4Cl)n3)cc2)C1 [Example 11, 1-(4-(5-(5-chloro-1-phenyl-1H-pyrazol-4-yl)-1,2,4-oxadiazol-3-yl)benzyl)azetidine-3-carboxylic acid]
9 | – | 3,400 | 0.98 nM | 7100 nM | 2.1 nM | O=C(O)C1CN(Cc2ccc(-c3noc(-c4cnn(-c5ccccc5)c4Br)n3)cc2)C1 [Example 14, 1-(4-(5-(5-Bromo-1-phenyl-1H-pyrazol-4-yl)-1,2,4-oxadiazol-3-yl)benzyl)azetidine-3-carboxylic acid, 2,2,2-trifluoroacetic acid salt]
10 | – | 550 | – | 710 nM | 1.3 nM | Cc1c(-c2nc(-c3ccc(CN4CC(C(=O)O)C4)cc3)no2)cnn1C1CCCCC1 [Example 9, 1-(4-(5-(1-cyclohexyl-5-methyl-1H-pyrazol-4-yl)-1,2,4-oxadiazol-3-yl)benzyl)azetidine-3-carboxylic acid]
